# Assay results published in ChEMBL document CHEMBL1149736, “A new acylated N-glycosyl lactam from Aristolochia contorta” (1992).
# Experiments:
# Bacillus subtilis = experiment: Antibacterial activity against Bacillus subtilis; assay type: functional
# Micrococcus luteus = experiment: Antibacterial activity against Sarcina lutea; assay type: functional
MIC (Bacillus subtilis) [µg/mL],MIC (Micrococcus luteus) [µg/mL],SMILES
43.8,175,COc1cccc2c1cc1c3c(cc4c(c32)OCO4)C(=O)N1[C@@H]1O[C@H](COC(=O)/C=C/c2ccc(O)cc2)[C@@H](O)[C@H](O)[C@H]1O
–,5,O=C(N[C@H](CO)[C@H](O)c1ccc([N+](=O)[O-])cc1)C(Cl)Cl [CHLORAMPHENICOL]
